Data taken from US11077090B2, “Compounds and compositions and uses thereof” (Sunovion Pharmaceuticals Inc., priority 2016, dated 2021).
Structures can show the parent of a compound that is named as a salt. Where two headings read alike, the source gives them in different places.

Tested on: compound-treated mice
Experiment: Neuropharmacological assay (SmartCube): behavioral activity signature and minimal effective dose
Format: in vivo
Settings: for minimal effective dose: Mus musculus, ip, MED = dose having 50% or more total activity; for AD: ADHD (probability of activity signature) / AG: analgesic (probability of activity signature) / AX: anxiolytic (probability of activity signature) / CE: cognitive enhancer (probability of activity signature) / DP: anti-depressant (probability of activity signature) / MS: mood stabilizer (probability of activity signature) / PS: anti-psychotic (probability of activity signature) / SD: sedative hypnotic (probability of activity signature) / UN: uncharacterized CNS activity (probability of activity signature): i.p. 15 min before test, most efficacious dose(s)
Method in brief: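 Video-recorded behavior is compared algorithmically against a reference-compound database, yielding class probabilities (best dose reported). Compounds given i.p. in NMP/PEG/propylene glycol 15 min pre-test at 3 doses; potency as MED, the dose (mpk, range usually 0.3–30) reaching ≥50% total activity.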

[1] = read-out: Potency: minimal effective dose (MED), binned
[2] = read-out: Potency: minimal effective dose (MED)

With `CC[C@H]1OCc2cccc(Cl)c2[C@@H]1N.Cl` (single isomer, unassigned) [Example 209] the minimal effective dose [1] was 3 to 10 mg/kg, the “AD: ADHD (probability of activity signature)” value (shortened to “AD: ADHD”) was “+ (LOQ ≤ + <5%)” and the “AG: analgesic (probability of activity signature)” value (shortened to “AG: analgesic”) was “+++ (25% ≤ +++ <50%)”. For the same compound, the “AX: anxiolytic (probability of activity signature)” value (“AX: anxiolytic” below) was “++ (5% ≤ ++ <25%)”, the “CE: cognitive enhancer (probability of activity signature)” value (shortened to “CE: cognitive enhancer”) was “++ (5% ≤ ++ <25%)” and the “DP: anti-depressant (probability of activity signature)” value (“DP: anti-depressant” for short) was “++ (5% ≤ ++ <25%)”. The “MS: mood stabilizer (probability of activity signature)” value (“MS: mood stabilizer” for short) was “+ (LOQ ≤ + <5%)”, the “PS: anti-psychotic (probability of activity signature)” value (“PS: anti-psychotic” for short) was “++ (5% ≤ ++ <25%)” and the “SD: sedative hypnotic (probability of activity signature)” value (“SD: sedative hypnotic” below) was “++ (5% ≤ ++ <25%)”. The “UN: uncharacterized CNS activity (probability of activity signature)” value (from here on “UN: uncharacterized CNS activity”) was “+++ (25% ≤ +++ <50%)”.
For `C[C@@H]1OCc2cc(F)ccc2[C@@H]1N.Cl` (single isomer, unassigned) [Example 212], the minimal effective dose [1] was 10 to 30 mg/kg, the “AD: ADHD” value was “+ (LOQ ≤ + <5%)” and the “AG: analgesic” value was “++ (5% ≤ ++ <25%)”. The “AX: anxiolytic” value was “++ (5% ≤ ++ <25%)”, the “CE: cognitive enhancer” value was “+ (LOQ ≤ + <5%)” and the “DP: anti-depressant” value was “+ (LOQ ≤ + <5%)”. The “MS: mood stabilizer” value was “+ (LOQ ≤ + <5%)”, the “PS: anti-psychotic” value was “+ (LOQ ≤ + <5%)” and the “SD: sedative hypnotic” value was “+ (LOQ ≤ + <5%)”. For the same compound, the “UN: uncharacterized CNS activity” value was “++++ (50% ≤ ++++)”.
With `C[C@H]1OCc2cc(F)ccc2[C@@H]1N.Cl` (single isomer, unassigned) [Example 213] the minimal effective dose [1] was 3 to 10 mg/kg, the “AD: ADHD” value was “+ (LOQ ≤ + <5%)” and the “AG: analgesic” value was “++ (5% ≤ ++ <25%)”. The “AX: anxiolytic” value was “++ (5% ≤ ++ <25%)”, the “CE: cognitive enhancer” value was “++ (5% ≤ ++ <25%)” and the “DP: anti-depressant” value was “++ (5% ≤ ++ <25%)”. For the same compound, the “MS: mood stabilizer” value was “+ (LOQ ≤ + <5%)”, the “PS: anti-psychotic” value was “++ (5% ≤ ++ <25%)” and the “SD: sedative hypnotic” value was “+ (LOQ ≤ + <5%)”. For the same compound, the “UN: uncharacterized CNS activity” value was “+++ (25% ≤ +++ <50%)”.
In the case of `CC[C@@H]1OCc2cccc(Cl)c2[C@@H]1N` (single isomer, unassigned) [Example 218], the minimal effective dose [1] is reported as under 3 mg/kg, the “AD: ADHD” value is reported as “+ (LOQ ≤ + <5%)” and the “AG: analgesic” value is reported as “+ (LOQ ≤ + <5%)”. The “AX: anxiolytic” value was “++ (5% ≤ ++ <25%)”, the “CE: cognitive enhancer” value was “++ (5% ≤ ++ <25%)” and the “DP: anti-depressant” value was “+ (LOQ ≤ + <5%)”. The “MS: mood stabilizer” value was “+ (LOQ ≤ + <5%)”, the “PS: anti-psychotic” value was “++ (5% ≤ ++ <25%)” and the “SD: sedative hypnotic” value was “+ (LOQ ≤ + <5%)”. For the same compound, the “UN: uncharacterized CNS activity” value was “++++ (50% ≤ ++++)”.
For `CCC[C@H]1OCc2ccccc2[C@@H]1N` (single isomer, unassigned) [Example 251], the minimal effective dose [1] was 3 to 10 mg/kg, the “AD: ADHD” value was “++ (5% ≤ ++ <25%)” and the “AG: analgesic” value was “+ (LOQ ≤ + <5%)”. The “AX: anxiolytic” value was “++ (5% ≤ ++ <25%)”, the “CE: cognitive enhancer” value was “+ (LOQ ≤ + <5%)” and the “DP: anti-depressant” value was “+ (LOQ ≤ + <5%)”. For the same compound, the “MS: mood stabilizer” value was “++ (5% ≤ ++ <25%)”, the “PS: anti-psychotic” value was “++ (5% ≤ ++ <25%)” and the “SD: sedative hypnotic” value was “++ (5% ≤ ++ <25%)”. The “UN: uncharacterized CNS activity” value was “++ (5% ≤ ++ <25%)”.
`Cc1cccc2c1[C@@H](C)OC[C@H]2N` (single isomer, unassigned) [Example 254] was tested, and the minimal effective dose [1] was 3 to 10 mg/kg, the “AD: ADHD” value was “+ (LOQ ≤ + <5%)” and the “AG: analgesic” value was “+ (LOQ ≤ + <5%)”. For the same compound, the “AX: anxiolytic” value was “+ (LOQ ≤ + <5%)”, the “CE: cognitive enhancer” value was “+ (LOQ ≤ + <5%)” and the “DP: anti-depressant” value was “+ (LOQ ≤ + <5%)”. For the same compound, the “MS: mood stabilizer” value was “+ (LOQ ≤ + <5%)”, the “PS: anti-psychotic” value was “+ (LOQ ≤ + <5%)” and the “SD: sedative hypnotic” value was “++ (5% ≤ ++ <25%)”. The “UN: uncharacterized CNS activity” value was “++ (5% ≤ ++ <25%)”.
In the case of `CC[C@@H]1OCc2ccccc2[C@@H]1N(C)C.Cl` (single isomer, unassigned) [Example 260], the minimal effective dose [1] is reported as 3 to 10 mg/kg, the “AD: ADHD” value is reported as “++ (5% ≤ ++ <25%)” and the “AG: analgesic” value is reported as “+ (LOQ ≤ + <5%)”. The “AX: anxiolytic” value was “+ (LOQ ≤ + <5%)”, the “CE: cognitive enhancer” value was “+ (LOQ ≤ + <5%)” and the “DP: anti-depressant” value was “+ (LOQ ≤ + <5%)”. For the same compound, the “MS: mood stabilizer” value was “++ (5% ≤ ++ <25%)”, the “PS: anti-psychotic” value was “+ (LOQ ≤ + <5%)” and the “SD: sedative hypnotic” value was “++ (5% ≤ ++ <25%)”. For the same compound, the “UN: uncharacterized CNS activity” value was “+ (LOQ ≤ + <5%)”.
In the case of `CC[C@H]1OCc2ccccc2[C@@H]1N(C)C.Cl` (single isomer, unassigned) [Example 261], the minimal effective dose [1] is reported as 10 to 30 mg/kg, the “AD: ADHD” value is reported as “++ (5% ≤ ++ <25%)” and the “AG: analgesic” value is reported as “+ (LOQ ≤ + <5%)”. The “AX: anxiolytic” value was “+ (LOQ ≤ + <5%)”, the “CE: cognitive enhancer” value was “+ (LOQ ≤ + <5%)” and the “DP: anti-depressant” value was “++++ (50% ≤ ++++)”. For the same compound, the “MS: mood stabilizer” value was “+ (LOQ ≤ + <5%)”, the “PS: anti-psychotic” value was “+ (LOQ ≤ + <5%)” and the “SD: sedative hypnotic” value was “++ (5% ≤ ++ <25%)”. For the same compound, the “UN: uncharacterized CNS activity” value was “++ (5% ≤ ++ <25%)”.
For `Cl.N[C@H]1c2ccccc2CO[C@@H]1CF` (single isomer, unassigned) [Example 276, cis-3-(fluoromethyl)isochroman-4-amine hydrochloride], the minimal effective dose [1] was 3 to 10 mg/kg, the “AD: ADHD” value was “+ (LOQ ≤ + <5%)” and the “AG: analgesic” value was “+ (LOQ ≤ + <5%)”. For the same compound, the “AX: anxiolytic” value was “+ (LOQ ≤ + <5%)”, the “CE: cognitive enhancer” value was “+ (LOQ ≤ + <5%)” and the “DP: anti-depressant” value was “+ (LOQ ≤ + <5%)”. The “MS: mood stabilizer” value was “++ (5% ≤ ++ <25%)”, the “PS: anti-psychotic” value was “+ (LOQ ≤ + <5%)” and the “SD: sedative hypnotic” value was “++ (5% ≤ ++ <25%)”. For the same compound, the “UN: uncharacterized CNS activity” value was “+ (LOQ ≤ + <5%)”.
With `C[C@@H]1OC[C@@H](N(C)C)c2ccccc21` (stereo in doubt) [Example 239, cis-N,N,1-trimethylisochroman-4-amine hydrochloride] the minimal effective dose [1] was 3 to 10 mg/kg, the “AD: ADHD” value was “++ (5% ≤ ++ <25%)” and the “AG: analgesic” value was “++ (5% ≤ ++ <25%)”. For the same compound, the “AX: anxiolytic” value was “++ (5% ≤ ++ <25%)”, the “CE: cognitive enhancer” value was “++ (5% ≤ ++ <25%)” and the “DP: anti-depressant” value was “++ (5% ≤ ++ <25%)”. For the same compound, the “MS: mood stabilizer” value was “+ (LOQ ≤ + <5%)”, the “PS: anti-psychotic” value was “++ (5% ≤ ++ <25%)” and the “SD: sedative hypnotic” value was “+ (LOQ ≤ + <5%)”. For the same compound, the “UN: uncharacterized CNS activity” value was “+++ (25% ≤ +++ <50%)”.
In the case of `Cl.NC1COCc2ccc(Cl)cc21` (centres unmarked) [Example 1, 6-Chloroisochroman-4-amine hydrochloride], the minimal effective dose [2] is reported as 10 to 30 mg/kg, the “AD: ADHD” value is reported as “+ (LOQ ≤ + <5%)” and the “AG: analgesic” value is reported as “++ (5% ≤ ++ <25%)”. The “AX: anxiolytic” value was “++ (5% ≤ ++ <25%)”, the “CE: cognitive enhancer” value was “++ (5% ≤ ++ <25%)” and the “DP: anti-depressant” value was “+ (LOQ ≤ + <5%)”. For the same compound, the “MS: mood stabilizer” value was “+ (LOQ ≤ + <5%)”, the “PS: anti-psychotic” value was “++ (5% ≤ ++ <25%)” and the “SD: sedative hypnotic” value was “++ (5% ≤ ++ <25%)”. For the same compound, the “UN: uncharacterized CNS activity” value was “++ (5% ≤ ++ <25%)”.
For `Cl.NC1COCc2cc(Cl)ccc21` (centres unmarked) [Example 2], the minimal effective dose [2] was 10 to 30 mg/kg, the “AD: ADHD” value was “+ (LOQ ≤ + <5%)” and the “AG: analgesic” value was “++ (5% ≤ ++ <25%)”. For the same compound, the “AX: anxiolytic” value was “++ (5% ≤ ++ <25%)”, the “CE: cognitive enhancer” value was “+ (LOQ ≤ + <5%)” and the “DP: anti-depressant” value was “+ (LOQ ≤ + <5%)”. For the same compound, the “MS: mood stabilizer” value was “+ (LOQ ≤ + <5%)”, the “PS: anti-psychotic” value was “+ (LOQ ≤ + <5%)” and the “SD: sedative hypnotic” value was “+ (LOQ ≤ + <5%)”. The “UN: uncharacterized CNS activity” value was “+++ (25% ≤ +++ <50%)”.
With `Cl.NC1COCc2cc(F)ccc21` (centres unmarked) [Example 3] the minimal effective dose [2] was 10 to 30 mg/kg, the “AD: ADHD” value was “+ (LOQ ≤ + <5%)” and the “AG: analgesic” value was “++ (5% ≤ ++ <25%)”. The “AX: anxiolytic” value was “++ (5% ≤ ++ <25%)”, the “CE: cognitive enhancer” value was “+ (LOQ ≤ + <5%)” and the “DP: anti-depressant” value was “++ (5% ≤ ++ <25%)”. For the same compound, the “MS: mood stabilizer” value was “+ (LOQ ≤ + <5%)”, the “PS: anti-psychotic” value was “+ (LOQ ≤ + <5%)” and the “SD: sedative hypnotic” value was “++ (5% ≤ ++ <25%)”. The “UN: uncharacterized CNS activity” value was “+++ (25% ≤ +++ <50%)”.
In the case of `Cc1ccc2c(c1)COCC2N.Cl` (centres unmarked) [Example 4], the minimal effective dose [2] is reported as 10 to 30 mg/kg, the “AD: ADHD” value is reported as “+ (LOQ ≤ + <5%)” and the “AG: analgesic” value is reported as “++ (5% ≤ ++ <25%)”. For the same compound, the “AX: anxiolytic” value was “+++ (25% ≤ +++ <50%)”, the “CE: cognitive enhancer” value was “++ (5% ≤ ++ <25%)” and the “DP: anti-depressant” value was “++ (5% ≤ ++ <25%)”. For the same compound, the “MS: mood stabilizer” value was “+ (LOQ ≤ + <5%)”, the “PS: anti-psychotic” value was “++ (5% ≤ ++ <25%)” and the “SD: sedative hypnotic” value was “++ (5% ≤ ++ <25%)”. For the same compound, the “UN: uncharacterized CNS activity” value was “+ (LOQ ≤ + <5%)”.
